Laboratory results reported in US20260191965A1 (priority 2022, published 2026).

Tests used:
[1] = system: clinical isolates of Mycobacterium tuberculosis; test: microbe, parasite or virus in culture; type: cell-based
[2] = system: Mycobacterium tuberculosis H37Rv (ATCC 27294); type: cell-based

Row | Compound | MIC range against tuberculosis strains resistant to rifampicin and metronidazole [1] | effect on growth of rifamycin-sensitive and rifamycin-resistant tuberculosis strains under anaerobic conditions [2]
1 | CO[C@H]1/C=C/O[C@@]2(C)Oc3c(C)c(O)c4c(c3C2=O)C2=NC3(CCN(CCn5c([N+](=O)[O-])cnc5C)CC3)NC2=C(NC(=O)/C(C)=C\C=C\[C@H](C)[C@H](O)[C@@H](C)[C@@H](O)[C@@H](C)[C@H](OC(C)=O)[C@@H]1C)C4=O | 0.5 to 2 µg/mL | –
2 | Cc1ncc([N+](=O)[O-])n1CCO [Metronidazole, metronidazole] | – | a certain inhibitory effect
